The values that follow come from ChEMBL document CHEMBL4420076, “Amylin and calcitonin receptor agonist” (2017).

For orientation: solubility means the dissolved amount per volume that the medium holds. Read a high solubility as a readily soluble substance. Broadly, the EC50 is the midpoint of the concentration-response curve.

A short description of series [1]: Solubility in 100 mM glycylglycine buffer at pH 3.0 incubated for 18 hrs by UPLC analysis. It counts as physicochemical.
A short description of series [2]: Solubility in 100 mM bistrispropane buffer at pH 6.0 incubated for 18 hrs by UPLC analysis. It is filed as physicochemical.
A short description of series [3]: Solubility in 100 mM glycylglycine buffer at pH 5.0 incubated for 18 hrs by UPLC analysis. It counts as physicochemical.
Series [4] is described as follows: Solubility in 100 mM bistrispropane buffer at pH 6.5 incubated for 18 hrs by UPLC analysis. It counts as physicochemical.
Series [5] can be described thus: Solubility in 100 mM bistrispropane buffer at pH 7.0 incubated for 18 hrs by UPLC analysis. It counts as physicochemical.
Series [6] is described as follows: Solubility in 100 mM bistrispropane buffer at pH 7.5 incubated for 18 hrs by UPLC analysis. It counts as physicochemical.
Series [7] in a line: Solubility in 100 mM bistrispropane buffer at pH 8.0 incubated for 18 hrs by UPLC analysis. It is filed as physicochemical.
Series [8] deals with T1, Amylin receptor AMY3; CALCR/RAMP3 (Homo sapiens, UniProt O60896+P30988).
T1 sequence (P30988 whole entry): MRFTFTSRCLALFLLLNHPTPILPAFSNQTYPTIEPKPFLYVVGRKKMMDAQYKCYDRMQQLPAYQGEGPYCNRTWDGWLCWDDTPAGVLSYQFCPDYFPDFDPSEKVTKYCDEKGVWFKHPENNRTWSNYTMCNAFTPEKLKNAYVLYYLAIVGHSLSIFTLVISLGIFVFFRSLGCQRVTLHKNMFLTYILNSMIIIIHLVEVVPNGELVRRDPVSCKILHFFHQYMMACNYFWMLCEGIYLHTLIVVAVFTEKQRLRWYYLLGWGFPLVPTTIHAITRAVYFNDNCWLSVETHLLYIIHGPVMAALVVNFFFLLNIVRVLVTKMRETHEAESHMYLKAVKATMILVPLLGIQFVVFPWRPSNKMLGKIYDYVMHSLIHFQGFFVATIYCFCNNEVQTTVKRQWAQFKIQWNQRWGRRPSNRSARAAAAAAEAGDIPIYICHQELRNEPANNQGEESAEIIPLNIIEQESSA
T1 sequence (O60896 whole entry): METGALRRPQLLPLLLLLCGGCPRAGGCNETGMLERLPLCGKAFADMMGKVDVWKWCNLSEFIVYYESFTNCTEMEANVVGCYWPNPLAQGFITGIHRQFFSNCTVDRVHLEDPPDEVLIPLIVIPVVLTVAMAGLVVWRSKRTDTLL
As to the kind of experiment: Agonist activity at human amylin receptor expressed in BHK570 cells co-expressing RAMP3 assessed as increase in intracellular cAMP concentration incubated for 3 hrs in absence of albumin by CRE luciferase reporter gene assay. It is filed as functional, cell-based. For orientation: In a reporter assay the amount or activity of a reporter protein is the signal.

Another series has as its target T2, Calcitonin receptor (Homo sapiens, UniProt P30988).
T2 sequence (P30988 whole entry): T1 sequence (P30988 whole entry)
As to the kind of experiment: Agonist activity at human calcitonin receptor expressed in BHK570 cells assessed as increase in intracellular cAMP concentration incubated for 3 hrs in absence of albumin by CRE luciferase reporter gene assay. It counts as functional, cell-based.

The nature of series [9]: Solubility in 100 mM glycylglycine buffer at pH 4.0 incubated for 18 hrs by UPLC analysis. It is filed as physicochemical.

Structures are written as SMILES. In brackets after ≈: the same amount, converted by molar mass. Square brackets hold non-standard residues; d marks the D form. Peptide text beside a SMILES is read from it. * marks the point of attachment. ξ: configuration not given here. C18 diacid = O=C(O)CCCCCCCCCCCCCCCCC(=O)*; Ile(3ξ) = CCC(C)[C@H](N)C(=O)O

Turning to `CC[C@@H](C)[C@H](NC(=O)[C@H](C)NC(=O)[C@@H](NC(=O)[C@H](CO)NC(=O)[C@@H](NC(=O)[C@H](CCC(=O)O)NC(=O)[C@H](CO)NC(=O)[C@H](C)NC(=O)[C@H](CCC(=O)O)NC(=O)CCCCCCCCCCCCCCCCC(=O)O)[C@H](C)CC)[C@@H](C)O)C(=O)N[C@@H](CC(C)C)C(=O)NCC(=O)N[C@@H](CCCNC(=N)N)C(=O)N[C@@H](CC(C)C)C(=O)N[C@@H](CO)C(=O)N[C@@H](C)C(=O)N[C@@H](CCC(=O)O)C(=O)N[C@@H](CC(C)C)C(=O)N[C@@H](Cc1cnc[nH]1)C(=O)N[C@@H](CCC(=O)O)C(=O)N[C@@H](CC(C)C)C(=O)N[C@@H](C)C(=O)N[C@H](C(=O)N[C@@H](CC(C)C)C(=O)N1CCC[C@H]1C(=O)N[C@@H](CCCNC(=N)N)C(=O)N[C@H](C(=O)N[C@@H](CCC(=O)O)C(=O)N[C@H](C(=O)NCC(=O)N1CCC[C@H]1C(=O)N[C@@H](CCC(=O)O)C(=O)N[C@@H](CO)C(=O)N1CCC[C@H]1C(N)=O)[C@@H](C)O)[C@@H](C)O)[C@@H](C)O`, the solubility at 18 h in [1], in series [2], in series [3], in series [4], in series [5] and in series [6] was not below 200 µM each time. Moreover, the solubility at 18 h in [7] is not below 200 µM.

As to `CC(C)C[C@H](NC(=O)[C@H](CCCNC(=N)N)NC(=O)CNC(=O)[C@H](CC(C)C)NC(=O)[C@@H](NC(=O)[C@H](C)NC(=O)[C@@H](NC(=O)[C@H](CO)NC(=O)[C@H](CC(C)C)NC(=O)[C@H](CCC(=O)O)NC(=O)[C@H](CO)NC(=O)[C@H](C)NC(=O)CC[C@H](NC(=O)CCCCCCCCCCCCCCCCCCC(=O)O)C(=O)O)[C@@H](C)O)C(C)C)C(=O)N[C@@H](CO)C(=O)N[C@@H](CCC(N)=O)C(=O)N[C@@H](CCC(=O)O)C(=O)N[C@@H](CC(C)C)C(=O)N[C@@H](Cc1cnc[nH]1)C(=O)N[C@@H](CCC(=O)O)C(=O)N[C@@H](CC(C)C)C(=O)N[C@@H](CCC(N)=O)C(=O)N[C@H](C(=O)N[C@@H](Cc1ccc(O)cc1)C(=O)N1CCC[C@H]1C(=O)N[C@@H](CCCNC(=N)N)C(=O)N[C@H](C(=O)N[C@@H](CCC(=O)O)C(=O)N[C@H](C(=O)NCC(=O)N[C@@H](CO)C(=O)NCC(=O)N[C@H](C(=O)N[C@@H](Cc1ccc(O)cc1)C(N)=O)[C@@H](C)O)[C@@H](C)O)[C@@H](C)O)[C@H](C)O`, the solubility at 18 h is not below 200 µM in [1]; not below 200 µM in series [2]; 7 µM (≈ 27.6 µg/mL) in series [3]; not below 200 µM in series [4]; not below 200 µM in series [5]; not below 200 µM in series [6]. In series [7], the solubility at 18 h was not below 200 µM.

For `CC[C@H](C)[C@H](NC(=O)[C@H](C)NC(=O)[C@@H](NC(=O)[C@H](CO)NC(=O)[C@@H](NC(=O)[C@H](CCC(=O)O)NC(=O)[C@H](CO)NC(=O)[C@H](C)NC(=O)[C@H](CCC(=O)O)NC(=O)CCCCCCCCCCCCCCCCC(=O)O)[C@@H](C)CC)[C@@H](C)O)C(=O)N[C@H](C(=O)NCC(=O)N[C@@H](CCCNC(=N)N)C(=O)N[C@@H](CC(C)C)C(=O)N[C@@H](CO)C(=O)N[C@@H](C)C(=O)N[C@@H](CCC(=O)O)C(=O)N[C@@H](CC(C)C)C(=O)N[C@@H](Cc1cnc[nH]1)C(=O)N[C@@H](CCC(=O)O)C(=O)N[C@@H](CC(C)C)C(=O)N[C@@H](C)C(=O)N[C@H](C(=O)N[C@@H](CC(C)C)C(=O)N1CCC[C@H]1C(=O)N[C@@H](CCCNC(=N)N)C(=O)N[C@H](C(=O)N[C@@H](CCC(=O)O)C(=O)N[C@H](C(=O)NCC(=O)N1CCC[C@H]1C(=O)N[C@@H](CCC(=O)O)C(=O)N[C@@H](CO)C(=O)N1CCC[C@H]1C(N)=O)[C@@H](C)O)[C@@H](C)O)[C@@H](C)O)[C@@H](C)CC` ({C18 diacid}-EASEISTAIIGRLSAELHELATLPRTETGPESP-NH2), the EC50 is 0.01 nM in series [8] and 5 pM at Calcitonin receptor. Further, the solubility at 18 h in series [1], in series [2], in series [3], in [4], in series [5] and in series [6] was not below 200 µM in each case. The same compound registered a solubility at 18 h in series [7] not below 200 µM.

Take `CC(C)C[C@H](NC(=O)[C@H](C)NC(=O)[C@H](C)NC(=O)[C@@H](NC(=O)[C@H](CO)NC(=O)[C@H](CC(C)C)NC(=O)[C@H](CCC(=O)O)NC(=O)[C@H](CO)NC(=O)[C@H](C)NC(=O)[C@H](CCC(=O)O)NC(=O)CCCCCCCCCCCCCCCCC(=O)O)[C@@H](C)O)C(=O)NCC(=O)N[C@@H](CCCNC(=N)N)C(=O)N[C@@H](CC(C)C)C(=O)N[C@@H](CO)C(=O)N[C@@H](C)C(=O)N[C@@H](CCC(=O)O)C(=O)N[C@@H](CC(C)C)C(=O)N[C@@H](Cc1cnc[nH]1)C(=O)N[C@@H](CCC(=O)O)C(=O)N[C@@H](CC(C)C)C(=O)N[C@@H](C)C(=O)N[C@H](C(=O)N[C@@H](Cc1ccc(O)cc1)C(=O)N1CCC[C@H]1C(=O)N[C@@H](CCCNC(=N)N)C(=O)N[C@H](C(=O)N[C@@H](CCC(=O)O)C(=O)N[C@H](C(=O)NCC(=O)N1CCC[C@H]1C(=O)N[C@@H](CCC(=O)O)C(=O)N[C@@H](CO)C(=O)N1CCC[C@H]1C(N)=O)[C@@H](C)O)[C@@H](C)O)[C@@H](C)O` ({C18 diacid}-EASELSTAALGRLSAELHELATYPRTETGPESP-NH2): the figures for the half-maximal effective concentration (EC50) (in series [8]; at Calcitonin receptor) were 0.011 nM and 7 pM, respectively.

Take `CCC(C)[C@H](NC(=O)[C@@H](NC(=O)[C@H](C)NC(=O)[C@@H](NC(=O)[C@H](CO)NC(=O)[C@H](CC(C)C)NC(=O)[C@H](CCC(=O)O)NC(=O)[C@H](CO)NC(=O)[C@H](C)NC(=O)[C@H](CCC(=O)O)NC(=O)CCCCCCCCCCCCCCCCC(=O)O)[C@@H](C)O)C(C)C)C(=O)NCC(=O)N[C@@H](CCCNC(=N)N)C(=O)N[C@@H](CC(C)C)C(=O)N[C@@H](CO)C(=O)N[C@@H](C)C(=O)N[C@@H](CCC(=O)O)C(=O)N[C@@H](CC(C)C)C(=O)N[C@@H](Cc1cnc[nH]1)C(=O)N[C@@H](CCC(=O)O)C(=O)N[C@@H](CC(C)C)C(=O)N[C@@H](C)C(=O)N[C@H](C(=O)N[C@@H](CC(C)C)C(=O)N1CCC[C@H]1C(=O)N[C@@H](CCCNC(=N)N)C(=O)N[C@H](C(=O)N[C@@H](CCC(=O)O)C(=O)N[C@H](C(=O)NCC(=O)N1CCC[C@H]1C(=O)N[C@@H](CCC(=O)O)C(=O)N[C@@H](CO)C(=O)N1CCC[C@H]1C(N)=O)[C@@H](C)O)[C@@H](C)O)[C@@H](C)O` (stereo not given in full) ({C18 diacid}-EASELSTAV[Ile(3ξ)]GRLSAELHELATLPRTETGPESP-NH2): the solubility at 18 h in series [1], in series [9], in [2], in series [3], in series [4] and in series [5] was not below 200 µM throughout. For the same compound, the solubility at 18 h in series [6] and in series [7] was not below 200 µM each time.

As for `CC(C)C[C@H](NC(=O)[C@H](CCCNC(=N)N)NC(=O)CNC(=O)[C@H](CC(C)C)NC(=O)[C@@H](NC(=O)[C@H](C)NC(=O)[C@@H](NC(=O)[C@H](CO)NC(=O)[C@@H](NC(=O)[C@H](CCC(=O)O)NC(=O)[C@H](CO)NC(=O)[C@H](C)NC(=O)[C@H](CCC(=O)O)NC(=O)CCCCCCCCCCCCCCCCC(=O)O)C(C)C)[C@@H](C)O)C(C)C)C(=O)N[C@@H](CO)C(=O)N[C@@H](C)C(=O)N[C@@H](CCC(=O)O)C(=O)N[C@@H](CC(C)C)C(=O)N[C@@H](Cc1cnc[nH]1)C(=O)N[C@@H](CCC(=O)O)C(=O)N[C@H](C(=O)N[C@@H](C)C(=O)N[C@H](C(=O)N[C@@H](CC(C)C)C(=O)N1CCC[C@H]1C(=O)N[C@@H](CCCNC(=N)N)C(=O)N[C@H](C(=O)N[C@@H](CCC(=O)O)C(=O)N[C@H](C(=O)NCC(=O)N1CCC[C@H]1C(=O)N[C@@H](CCC(=O)O)C(=O)N[C@@H](CO)C(=O)N1CCC[C@H]1C(N)=O)[C@@H](C)O)[C@@H](C)O)[C@@H](C)O)C(C)C` ({C18 diacid}-EASEVSTAVLGRLSAELHEVATLPRTETGPESP-NH2), the EC50 is 0.023 nM in [8] and 54 pM on Calcitonin receptor. Also, the solubility at 18 h in series [2], in series [4], in series [5], in series [6] and in series [7] was not below 200 µM throughout.
